In patent US8952024B2, “Herbicidal pyrimidone derivatives” (E I du Pont de Nemours and Company, priority 2009, dated 2015):

Assays:
Assay in all cases: Test B pre-/postemergence plant response
Format in all cases: in vivo
[1] = system: Italian ryegrass (Lolium multiflorum); settings: for Ryegrass, Italian plant response rating (0 to 100 scale): 62 g ai/ha, 0 is no effect, 13 to 15 days
Procedure, shortened: (§1)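 Response scores were assigned visually after 13 to 15 days in a greenhouse, comparing treated pots with controls on a 0–100 scale where 100 denotes complete control. Preemergence treatments went onto freshly seeded loam/sand soil; postemergence treatments onto plants 2 to 18 cm tall.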

[2] = system: Surinam grass (Brachiaria decumbens); settings: for Surinam Grass plant response rating (0 to 100 scale): 62 g ai/ha, 0 is no effect, 13 to 15 days
Procedure, shortened: as §1

[3] = system: bermudagrass (Cynodon dactylon); settings: for Bermudagrass plant response rating (0 to 100 scale): 62 g ai/ha, 0 is no effect, 13 to 15 days
Procedure, shortened: as §1

[4] = system: blackgrass (Alopecurus myosuroides); settings: for Blackgrass plant response rating (0 to 100 scale): 62 g ai/ha, 0 is no effect, 13 to 15 days
Procedure, shortened: as §1

[5] = system: cocklebur (Xanthium strumarium); settings: for Cocklebur plant response rating (0 to 100 scale): 62 g ai/ha, 0 is no effect, 13 to 15 days
Procedure, shortened: as §1

corn (Zea mays) = settings: for Corn plant response rating (0 to 100 scale): 62 g ai/ha, 0 is no effect, 13 to 15 days
Procedure, shortened: as §1

[6] = system: downy bromegrass (Bromus tectorum); settings: for Bromegrass, Downy plant response rating (0 to 100 scale): 62 g ai/ha, 0 is no effect, 13 to 15 days
Procedure, shortened: as §1

[7] = system: green foxtail (Setaria viridis); settings: for Foxtail, Green plant response rating (0 to 100 scale): 62 g ai/ha, 0 is no effect, 13 to 15 days
Procedure, shortened: as §1

kochia (Kochia scoparia) = settings: for Kochia plant response rating (0 to 100 scale): 62 g ai/ha, 0 is no effect, 13 to 15 days
Procedure, shortened: as §1

[8] = system: lambsquarters (Chenopodium album); settings: for Lambsquarters plant response rating (0 to 100 scale): 62 g ai/ha, 0 is no effect, 13 to 15 days
Procedure, shortened: as §1

[9] = system: large crabgrass (Digitaria sanguinalis); settings: for Crabgrass, Large plant response rating (0 to 100 scale): 62 g ai/ha, 0 is no effect, 13 to 15 days
Procedure, shortened: as §1

[10] = system: pigweed (Amaranthus retroflexus); settings: for Pigweed plant response rating (0 to 100 scale): 62 g ai/ha, 0 is no effect, 13 to 15 days
Procedure, shortened: as §1

[11] = system: ragweed (common ragweed, Ambrosia elatior); settings: for Ragweed plant response rating (0 to 100 scale): 62 g ai/ha, 0 is no effect, 13 to 15 days
Procedure, shortened: as §1

soybean (Glycine max) = settings: for Soybean plant response rating (0 to 100 scale): 62 g ai/ha, 0 is no effect, 13 to 15 days
Procedure, shortened: as §1

[12] = system: velvetleaf (Abutilon theophrasti); settings: for Velvetleaf plant response rating (0 to 100 scale): 62 g ai/ha, 0 is no effect, 13 to 15 days
Procedure, shortened: as §1

wild oat (Avena fatua) = settings: for Oat, Wild plant response rating (0 to 100 scale): 62 g ai/ha, 0 is no effect, 13 to 15 days
Procedure, shortened: as §1

[13] = system: yellow nutsedge (Cyperus esculentus); settings: for Nutsedge, Yellow plant response rating (0 to 100 scale): 62 g ai/ha, 0 is no effect, 13 to 15 days
Procedure, shortened: as §1

[14] = 31 g ai/ha, postemergence, scale 0 to 100, 0 is no effect, 100 is complete control
[15] = postemergence, 100 is complete control
[16] = Postemergence, 250 g ai/ha, scale 0 to 100 (0 no effect, 100 complete control)
[17] = Postemergence, 125 g ai/ha, visual rating after 13 to 15 days, scale 0 (no effect) to 100 (complete control)

COCCOCCn1c(-c2ccccc2)ncc(C(=O)C2=C(O)CCCC2=O)c1=O [Compound 91]
0: Plant response rating, Ryegrass, Italian [1, 14] | Plant response rating, Bromegrass, Downy [6, 14]
70: Plant response rating, Foxtail, Green [7, 14]
25: Plant response rating, Corn (corn (Zea mays); [14])
35: Corn plant response rating (0 to 100 scale) (corn (Zea mays); [15])
65: Cocklebur plant response rating (0 to 100 scale) [5, 15] | Nutsedge, Yellow plant response rating (0 to 100 scale) [13, 15]
20: Plant response rating, Ryegrass, Italian [1, 16] | Blackgrass plant response rating (0 to 100 scale) [4, 15] | Plant response rating, Cocklebur [5, 14] | Plant response rating, Kochia (kochia (Kochia scoparia); [14])
60: Plant response rating, Corn (corn (Zea mays); [16])
5: Ryegrass, Italian plant response rating (0 to 100 scale) [1, 15] | Bromegrass, Downy plant response rating (0 to 100 scale) [6, 15] | Plant response rating, Bromegrass, Downy [6, 17]
10: Plant response rating, Blackgrass [4, 14]
30: Plant response rating, Blackgrass [4, 17] | Plant response rating, Bromegrass, Downy [6, 16] | Plant response rating, Oat, Wild (wild oat (Avena fatua); [14]) | Oat, Wild plant response rating (0 to 100 scale) (wild oat (Avena fatua); [15])
45: Plant response rating, Corn (corn (Zea mays); [17])
80: Kochia plant response rating (0 to 100 scale) (kochia (Kochia scoparia); [15]) | Plant response rating, Crabgrass, Large [9, 14]
95: Bermudagrass plant response rating (0 to 100 scale) [3, 15] | Plant response rating, Bermudagrass [3, 17] | Plant response rating, Bermudagrass [3, 16] | Plant response rating, Cocklebur [5, 17] | Plant response rating, Cocklebur [5, 16] | Plant response rating, Kochia (kochia (Kochia scoparia); [16]) | Crabgrass, Large plant response rating (0 to 100 scale) [9, 15]
75: Plant response rating, Bermudagrass [3, 14] | Plant response rating, Soybean (soybean (Glycine max); [14]) | Plant response rating, Nutsedge, Yellow [13, 16]
98: Surinam Grass plant response rating (0 to 100 scale) [2, 15] | Plant response rating, Surinam Grass [2, 16] | Plant response rating, Foxtail, Green [7, 16] | Plant response rating, Crabgrass, Large [9, 17] | Plant response rating, Ragweed [11, 16] | Plant response rating, Soybean (soybean (Glycine max); [16]) | Plant response rating, Velvetleaf [12, 14]
50: Plant response rating, Blackgrass [4, 16] | Plant response rating, Oat, Wild (wild oat (Avena fatua); [16]) | Plant response rating, Nutsedge, Yellow [13, 14]
85: Plant response rating, Surinam Grass [2, 14] | Foxtail, Green plant response rating (0 to 100 scale) [7, 15] | Plant response rating, Lambsquarters [8, 14] | Plant response rating, Ragweed [11, 14] | Ragweed plant response rating (0 to 100 scale) [11, 15] | Soybean plant response rating (0 to 100 scale) (soybean (Glycine max); [15])
100: Lambsquarters plant response rating (0 to 100 scale) [8, 15] | Plant response rating, Lambsquarters [8, 16] | Plant response rating, Crabgrass, Large [9, 16] | Plant response rating, Pigweed [10, 14] | Pigweed plant response rating (0 to 100 scale) [10, 15] | Plant response rating, Pigweed [10, 16] | Velvetleaf plant response rating (0 to 100 scale) [12, 15] | Plant response rating, Velvetleaf [12, 16]

O=C1CCCC(O)=C1C(=O)c1cnc(C2CCCC2)n(-c2ccccc2)c1=O [Compound 92]
10: Plant response rating, Oat, Wild (wild oat (Avena fatua); [16])
65: Surinam Grass plant response rating (0 to 100 scale) [2, 15] | Nutsedge, Yellow plant response rating (0 to 100 scale) [13, 15]
40: Plant response rating, Ragweed [11, 14]
35: Corn plant response rating (0 to 100 scale) (corn (Zea mays); [15])
85: Plant response rating, Bermudagrass [3, 17] | Plant response rating, Bermudagrass [3, 16]
100: Plant response rating, Kochia (kochia (Kochia scoparia); [16]) | Plant response rating, Lambsquarters [8, 16] | Plant response rating, Crabgrass, Large [9, 16] | Pigweed plant response rating (0 to 100 scale) [10, 15] | Plant response rating, Pigweed [10, 16] | Velvetleaf plant response rating (0 to 100 scale) [12, 15] | Plant response rating, Velvetleaf [12, 16]
30: Plant response rating, Ryegrass, Italian [1, 16]
60: Plant response rating, Corn (corn (Zea mays); [16]) | Ragweed plant response rating (0 to 100 scale) [11, 15]
45: Plant response rating, Corn (corn (Zea mays); [17]) | Plant response rating, Nutsedge, Yellow [13, 14]
98: Plant response rating, Cocklebur [5, 17] | Plant response rating, Cocklebur [5, 16] | Plant response rating, Foxtail, Green [7, 16] | Lambsquarters plant response rating (0 to 100 scale) [8, 15] | Plant response rating, Crabgrass, Large [9, 17] | Soybean plant response rating (0 to 100 scale) (soybean (Glycine max); [15]) | Plant response rating, Soybean (soybean (Glycine max); [16])
80: Bermudagrass plant response rating (0 to 100 scale) [3, 15] | Cocklebur plant response rating (0 to 100 scale) [5, 15] | Foxtail, Green plant response rating (0 to 100 scale) [7, 15] | Plant response rating, Crabgrass, Large [9, 14]
95: Plant response rating, Velvetleaf [12, 14]
0: Plant response rating, Ryegrass, Italian [1, 14] | Ryegrass, Italian plant response rating (0 to 100 scale) [1, 15] | Plant response rating, Blackgrass [4, 14] | Blackgrass plant response rating (0 to 100 scale) [4, 15] | Plant response rating, Bromegrass, Downy [6, 14] | Plant response rating, Oat, Wild (wild oat (Avena fatua); [14])
5: Plant response rating, Blackgrass [4, 17] | Plant response rating, Blackgrass [4, 16] | Bromegrass, Downy plant response rating (0 to 100 scale) [6, 15] | Oat, Wild plant response rating (0 to 100 scale) (wild oat (Avena fatua); [15])
25: Plant response rating, Surinam Grass [2, 14] | Plant response rating, Cocklebur [5, 14]
75: Plant response rating, Surinam Grass [2, 16] | Plant response rating, Foxtail, Green [7, 14] | Plant response rating, Kochia (kochia (Kochia scoparia); [14]) | Plant response rating, Ragweed [11, 16] | Plant response rating, Nutsedge, Yellow [13, 16]
90: Kochia plant response rating (0 to 100 scale) (kochia (Kochia scoparia); [15]) | Plant response rating, Lambsquarters [8, 14] | Crabgrass, Large plant response rating (0 to 100 scale) [9, 15] | Plant response rating, Pigweed [10, 14] | Plant response rating, Soybean (soybean (Glycine max); [14])
20: Plant response rating, Bermudagrass [3, 14] | Plant response rating, Corn (corn (Zea mays); [14]) | Plant response rating, Bromegrass, Downy [6, 17] | Plant response rating, Bromegrass, Downy [6, 16]
